Experimental data taken from patent US6486177B2, “Methods for treatment of cognitive and menopausal disorders with D-threo methylphenidate” (Celgene Corporation, priority 1995, dated 2002).

Columns and labels:
[1] = children suffering from ADHD; Clin. Pharmacol. Ther. 52: 561-568 (1992); cited from earlier work
[2] = cited from earlier work
[3] = D-threo vs DL-threo methylphenidate vs placebo in patients in the context of ADD: objective tests and subjective observations; assay type: in vivo, human; details: for performance in objective tests: at the 6 hour time point, versus DL-threo racemate or placebo
Excerpt: The present inventors have observed that in the context of ADD, D-threo methylphenidate has a longer duration of action than DL-methylphenidate of at least six hours.
Response by patients with cognitive deficiencies described herein is generally determined by two types of measurements: objective measures of a patient's ability to concentrate and remain focused on a task such as performing a math test; and subjective scores of a patient's performance.

| SMILES | pharmacodynamic activity / pharmacological effectiveness [1] | euphoric effect / potential for abuse ([2]; administered intravenously or through inhalation or ingestion) | undesirable side effects ([2]; use of the racemate) | performance in objective tests [3] | persistence of beneficial effects ([3]; D-threo isomer alone versus in combination with the L-threo isomer) | subjective observations: duration of beneficial effects ([3]; same patients, versus DL-threo racemate) |
| --- | --- | --- | --- | --- | --- | --- |
| COC(=O)[C@@H](c1ccccc1)[C@@H]1CCCCN1 (single isomer, unassigned) [L isomer, L-threo-methylphenidate, reference compound] | apparently makes no significant contribution to the pharmacological effectiveness of the drug |  |  |  |  |  |
| COC(=O)C(c1ccccc1)C1CCCCN1 (racemic) [DL-threo racemate, DL-threo-methylphenidate] |  | produces a euphoric effect | anorexia, weight loss, insomnia, dizziness and dysphoria | did not perform better after that time period than those who received a placebo |  |  |
| COC(=O)[C@H](c1ccccc1)[C@H]1CCCCN1 [D-threo methylphenidate, D-threo-methylphenidate] | pharmacodynamic activity of DL-threo-methylphenidate resides in the D-threo isomer |  |  | performed better in objective tests than patients who received the DL-threo racemate or a placebo | persist for a longer period time when the D-threo isomer is administered alone than when it is administered in combination with the L-threo isomer | experienced beneficial effects of the drug for longer times than did those who received the DL-threo racemate |
